Measurements reported in patent US7671084B2 (Wyeth, priority 2004, dated 2010).

Columns and labels:
human ERβ = target: T1, human ERβ (Homo sapiens, UniProt Q92731); assay: Competition with [3H]-17β-estradiol for binding to ERβ; conditions: ligand binding domain of human ERβ in E. coli crude lysate, 2 nM [3H]-17β-estradiol, 5-15 hours at room temperature
T1 construct: made in house; host or cells: E. coli (crude lysate)
Experimental: Representative examples of the invention were evaluated for their ability to compete with 17β-estradiol for both ERα and ERβ. This test procedure provides the methodology for one to determine whether a particular compound binds to the estrogen receptor (and is therefore “estrogenic”) and whether there is selectivity for ERα or ERβ. […] 17β-estradiol is included as a standard reference for comparison. The procedure used is briefly described below. A crude lysate of E. coli expressing the estrogen receptor ligand binding domains (D, E, & F) of human ERα or ERβ was prepared. Both receptors and compounds were diluted in 1× Dulbecco's PBS (DPBS) supplemented with 1 mM EDTA. Using a high binding masked microtiter plate, 100 uL of receptor (1 uG/well) was combined with 2 nm [^3H]-17β-estradiol and various concentrations of compound. After between 5 and 15 hours at room temperature, the plates were washed with DPBS/1 mM EDTA and bound radioactivity determined by liquid scintillation counting. The IC50 is defined as the concentration of compound that decreases total 17β-estradiol binding by 50%.

human ERα = target: T2, human ERα (Homo sapiens, UniProt P03372); assay: Competition with [3H]-17β-estradiol for binding to ERα; conditions: ligand binding domain of human ERα in E. coli crude lysate, 2 nM [3H]-17β-estradiol, 5-15 hours at room temperature; read-out: ERα (nM) IC50
T2 construct: made in house; host or cells: E. coli (crude lysate)
T2 sequence (P03372 311-547 limits assumed): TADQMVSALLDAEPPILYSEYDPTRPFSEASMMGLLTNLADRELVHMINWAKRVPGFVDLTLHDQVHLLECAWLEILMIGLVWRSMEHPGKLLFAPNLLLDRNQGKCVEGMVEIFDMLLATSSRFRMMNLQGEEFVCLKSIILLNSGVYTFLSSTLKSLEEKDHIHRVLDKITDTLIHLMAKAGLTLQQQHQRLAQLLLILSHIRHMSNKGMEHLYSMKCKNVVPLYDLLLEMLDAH
Experimental: Representative examples of the invention were evaluated for their ability to compete with 17β-estradiol for both ERα and ERβ. This test procedure provides the methodology for one to determine whether a particular compound binds to the estrogen receptor (and is therefore “estrogenic”) and whether there is selectivity for ERα or ERβ. The values are shown in the Table infra and are reported as IC50s. 17β-estradiol is included as a standard reference for comparison. The procedure used is briefly described below. A crude lysate of E. coli expressing the estrogen receptor ligand binding domains (D, E, & F) of human ERα or ERβ was prepared. Both receptors and compounds were diluted in 1× Dulbecco's PBS (DPBS) supplemented with 1 mM EDTA. Using a high binding masked microtiter plate, 100 uL of receptor (1 uG/well) was combined with 2 nm [^3H]-17β-estradiol and various concentrations of compound. After between 5 and 15 hours at room temperature, the plates were washed with DPBS/1 mM EDTA and bound radioactivity determined by liquid scintillation counting. The IC50 is defined as the concentration of compound that decreases total 17β-estradiol binding by 50%.

T1 sequence (Q92731 264-498 limits assumed): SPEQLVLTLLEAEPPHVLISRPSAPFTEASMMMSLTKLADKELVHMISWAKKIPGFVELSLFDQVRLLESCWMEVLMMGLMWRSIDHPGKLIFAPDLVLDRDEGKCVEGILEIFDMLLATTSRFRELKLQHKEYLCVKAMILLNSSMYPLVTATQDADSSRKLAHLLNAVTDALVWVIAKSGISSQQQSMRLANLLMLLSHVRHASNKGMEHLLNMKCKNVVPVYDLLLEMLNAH

IC50 (human ERβ) [nM] | IC50 (human ERα) [nM] | melting point [°C] | SMILES
22 | 608 | 218 to 221 | Cc1ccc(-c2c3c(cc4ccc(O)cc24)-c2ccc(O)cc2CO3)cc1C [Example 39, 7-(3,4-Dimethylphenyl)-5H-dibenzo[c,g]chromene-3,9-diol]
9.2 | 162 | > 250 | N#Cc1ccc(-c2c3c(cc4ccc(O)cc24)-c2ccc(O)cc2CO3)cc1 [Example 40, 7-(4-Cyanophenyl)-5H-dibenzo[c,g]chromene-3,9-diol]
28 | 655 | 238 to 240 | Cc1ccc(-c2c3c(cc4ccc(O)cc24)-c2ccc(O)cc2CO3)cc1F [Example 41, 7-(3-Fluoro-4-Methylphenyl)-5H-dibenzo[c,g]chromene-3,9-diol]
22 | 1820 | 245 to 248 | COc1ccc(-c2c3c(cc4ccc(O)cc24)-c2ccc(O)cc2CO3)cc1OC [Example 42, 7-(3,4-Dimethoxyphenyl)-5H-dibenzo[c,g]chromene-3,9-diol]
10 | 263 | 228 to 231 | Oc1ccc2c(c1)COc1c-2cc2ccc(O)cc2c1-c1cccc(C(F)(F)F)c1 [Example 43, 7-(3-Trifluoromethylphenyl)-5H-dibenzo[c,g]chromene-3,9-diol]
10 | 70 | 238 to 240 | Oc1ccc2c(c1)COc1c-2cc2ccc(O)cc2c1-c1cc(F)cc(F)c1 [Example 44, 7-(3,5-Difluorophenyl)-5H-dibenzo[c,g]chromene-3,9-diol]
34 | 151 | 252 to 255 | Oc1ccc2c(c1)COc1c-2cc2ccc(O)cc2c1-c1cc(Cl)cc(Cl)c1 [Example 45, 7-(3,5-Dichlorophenyl)-5H-dibenzo[c,g]chromene-3,9-diol]
39 | 709 | 185 to 188 | Cc1cc(-c2c3c(cc4ccc(O)cc24)-c2ccc(O)cc2CO3)ccc1F [Example 46, 7-(3-Methyl-4-Fluorophenyl)-5H-dibenzo[c,g]chromene-3,9-diol]
2 | 76 | 216 to 218 | Oc1ccc2c(c1)COc1c-2cc2ccc(O)cc2c1-c1ccoc1 [Example 47, 7-(3-Furyl)-5H-dibenzo[c,g]chromene-3,9-diol]
3.5 | 146 | 158 to 163 | Oc1ccc2c(c1)COc1c-2cc2ccc(O)cc2c1-c1ccco1 [Example 48, 7-(2-Furyl)-5H-dibenzo[c,g]chromene-3,9-diol]
0.8 | 4 | 187 to 189 | CCCCc1c2c(cc3ccc(O)cc13)-c1ccc(O)cc1CO2 [Example 49, 7-Butyl-5H-dibenzo[c,g]chromene-3,9-diol]
14 | 1360 | > 250 | Oc1ccc2c(c1)COc1c-2cc2ccc(O)cc2c1-c1cccnc1 [Example 50, 7-(3-Pyridinyl)-5H-dibenzo[c,g]chromene-3,9-diol]
34 | 2420 | > 250 | COc1cncc(-c2c3c(cc4ccc(O)cc24)-c2ccc(O)cc2CO3)c1 [Example 53, 7-(5-Methoxy-3-Pyridyl)-5H-dibenzo[c,g]chromene-3,9-diol]
108 | > 5000 | > 220 | Oc1ccc2c(c1)COc1c-2cc2ccc(O)cc2c1-c1ccccn1 [Example 54, 7-(2-Pyridyl)-5H-dibenzo[c,g]chromene-3,9-diol]
142 | 804 | 195 to 198 | CSc1ccc(-c2c3c(cc4ccc(O)cc24)-c2ccc(O)cc2CO3)cc1 [Example 56, 7-(4-Methylthiophenyl)-5H-dibenzo[c,g]chromene-3,9-diol]
71 | 358 | 240 to 242 | N#CCc1ccc(-c2c3c(cc4ccc(O)cc24)-c2ccc(O)cc2CO3)cc1 [Example 57, 7-(4-Cyanomethylphenyl)-5H-dibenzo[c,g]chromene-3,9-diol]
40 | 661 | 110 to 112 | Oc1ccc2c(c1)COc1c-2cc2ccc(O)cc2c1-c1cccc(OC(F)(F)F)c1 [Example 58, 7-(3-Trifluoromethoxyphenyl)-5H-dibenzo[c,g]chromene-3,9-diol]
34 | 1220 | 245 to 248 | Oc1ccc2c(c1)COc1c-2cc2ccc(O)cc2c1-c1ccc(OC(F)(F)F)cc1 [Example 59, 7-(4-Trifluoromethoxyphenyl)-5H-dibenzo[c,g]chromene-3,9-diol]
320 | 3480 | 162 to 165 | CC(C)(C)c1ccc(-c2c3c(cc4ccc(O)cc24)-c2ccc(O)cc2CO3)cc1 [Example 60, 7-(4-tert-Butylphenyl)-5H-dibenzo[c,g]chromene-3,9-diol]
26 | 892 | 203 to 205 | CCc1ccc(-c2c3c(cc4ccc(O)cc24)-c2ccc(O)cc2CO3)cc1 [Example 62, 7-(4-Ethylphenyl)-5H-dibenzo[c,g]chromene-3,9-diol]
